Source: patent US10899772B2, “IRAK4 modulators” (priority 2017, dated 2021)

Biological target: human IRAK4 (Homo sapiens (Human), UniProt Q9NWZ3)
Assay: IRAK4 kinase inhibition, Transcreener fluorescence polarization (ADP detection)
Format: biochemical
Settings: recombinant full-length His6-IRAK4 1.25 nM; 125 μM ATP; 125 μM peptide; 90 min; Ki computed using ATP Km 642 μM
Procedure: Compounds were assayed for inhibition of human IRAK4 and IRAK1 catalytic activity using recombinant enzyme produced from insect cells. Full-length IRAK4 protein, carrying an N-terminal His6-Tag, was obtained from Life Technologies (Carlsbad, Calif., USA). The IRAK1 construct was produced internally and was comprised of IRAK1 residues Arg194 to Ser712, preceded by an NH2-terminal His6 tag and the coding sequence for glutathione-S-transferase.
Kinase activities were assayed using the Transcreener-Fluorecescence polarization platform (BelBrook Labs, Madison, Wis., USA) that measures amounts of the reaction product, ADP.
384 well assay plates spotted with compound received 4 μl of a 2× substrate (ATP+peptide) mix in reaction buffer, followed by 4 μl of 2× enzyme diluted in reaction buffer.

Chain of human IRAK4 (Q9NWZ3 whole entry): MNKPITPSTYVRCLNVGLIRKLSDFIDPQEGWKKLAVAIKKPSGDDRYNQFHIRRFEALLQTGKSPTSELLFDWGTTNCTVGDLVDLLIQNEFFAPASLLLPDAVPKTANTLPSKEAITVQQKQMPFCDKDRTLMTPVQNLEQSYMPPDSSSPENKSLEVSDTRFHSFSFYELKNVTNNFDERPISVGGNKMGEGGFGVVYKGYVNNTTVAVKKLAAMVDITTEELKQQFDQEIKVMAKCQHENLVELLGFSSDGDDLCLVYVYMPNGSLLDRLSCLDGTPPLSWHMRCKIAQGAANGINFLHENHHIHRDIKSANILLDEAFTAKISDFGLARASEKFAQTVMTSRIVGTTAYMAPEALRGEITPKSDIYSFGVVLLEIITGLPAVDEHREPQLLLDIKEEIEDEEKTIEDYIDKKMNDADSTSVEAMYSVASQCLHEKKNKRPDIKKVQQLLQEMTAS

Row | Compound | Ki
1 | C[C@@H](O)c1cccc(C(=O)Nc2cc3c(cc2N2CCOCC2)C(=O)N(C[C@@H](F)C(C)(C)O)C3)n1 (racemic) [Example 21, N-[6-morpholino-1-oxo-2-[rac-(2R)-2-fluoro-3-hydroxy-3-methyl-butyl]isoindolin-5-yl]-6-[rac-(1R)-1-hydroxyethyl] pyridine-2-carboxamide] | 1.7 nM
2 | CC(C)(O)[C@H](F)CN1Cc2cc(NC(=O)c3cccc(C(F)(F)F)n3)c(N3CCOCC3)cc2C1=O [Example 17, (R)—N-(2-(2-Fluoro-3-hydroxy-3-methylbutyl)-6-morpholino-1-oxoisoindolin-5-yl)-6-(trifluoromethyl)picolinamide] | 2.5 nM
3 | C[C@H](O)c1cccc(C(=O)Nc2cc3c(cc2N2CCOCC2)C(=O)N(C[C@@H](F)C(C)(C)O)C3)n1 (racemic) [Example 22, N-[6-morpholino-1-oxo-2-[rac-(2R)-2-fluoro-3-hydroxy-3-methyl-butyl]isoindolin-5-yl]-6-[rac-(1S)-1-hydroxyethyl] pyridine-2-carboxamide] | 9.2 nM
4 | CC(C)(O)[C@H](F)CN1Cc2cc(NC(=O)c3cccc4[nH]cnc34)c(N3CCOCC3)cc2C1=O [Example 32, N-[2-[(2R)-2-Fluoro-3-hydroxy-3-methyl-butyl]-6-morpholino-1-oxo-isoindolin-5-yl]-1H-benz-imidazole-4-carboxamide] | 1.1 nM
5 | C[C@H]1COCCN1c1nc(C(=O)Nc2cc3c(cc2N2CCOCC2)C(=O)N(C[C@@H](F)C(C)(C)O)C3)co1 [Example 10, N-[2-[(2R)-2-Fluoro-3-hydroxy-3-methyl-butyl]-6-morpholino-1-oxo-isoindolin-5-yl]-2-[(3S)-3-methylmorpholin-4-yl]oxazole-4-carboxamide] | 7.6 nM
6 | COc1cccc(C(=O)Nc2cc3c(cc2N(C)C)C(=O)N(C[C@@H](F)C(C)(C)O)C3)n1 [Example 19, N-[6-(Dimethyl-amino)-2-[(2R)-2-fluoro-3-hydroxy-3-methyl-butyl]-1-oxo-isoindolin-5-yl]-6-methoxy-pyridine-2-carboxamide] | 1.5 nM
7 | CC(C)(O)[C@H](F)CN1Cc2cc(NC(=O)c3ccc[nH]c3=O)c(N3CCOCC3)cc2C1=O [Example 3, (R)-N-(2-(2-Fluoro-3-hydroxy-3-methylbutyl)-6-morpholino-1-oxoisoindolin-5-yl)-2-oxo-1,2-dihydropyridine-3-carboxamide] | 8.2 nM
8 | CN(C)c1cc2c(cc1NC(=O)c1cccc(OC3CCNC3)n1)CN(C[C@@H](F)C(C)(C)O)C2=O (stereo partly drawn) [Example 13, N-[6-(Dimethylamino)-2-[(2R)-2-fluoro-3-hydroxy-3-methyl-butyl]-1-oxo-isoindolin-5-yl]-6-pyrrolidin-3-yloxy-pyridine-2-carboxamide] | 5.8 nM
9 | CC(C)(O)[C@H](F)CN1Cc2cc(NC(=O)c3cccc(CC(F)(F)F)n3)c(N3CCOCC3)cc2C1=O (racemic) [Example 25, N-[6-morpholino-1-oxo-2-[rac-(2R)-2-fluoro-3-hydroxy-3-methyl-butyl]isoindolin-5-yl]-6-(2,2,2-trifluoroethyl)pyridine-2-carboxamide] | 6.5 nM
10 | Cc1ccc(-c2cc3c(cc2NC(=O)c2cnc(C)o2)CN(C[C@@H](F)C(C)(C)O)C3=O)nc1 [Example 14, (R)-N-(2-(2-Fluoro-3-hydroxy-3-methylbutyl)-6-(5-methyl-pyridin-2-yl)-1-oxoisoindolin-5-yl)-2-methyloxazole-5-carboxamide] | 4.2 nM
11 | Cn1ncc(C(=O)Nc2cc3c(cc2N2CCOCC2)C(=O)N(C[C@@H](F)C(C)(C)O)C3)c1Cl [Example 33, 5-Chloro-N-[2-[(2R)-2-fluoro-3-hydroxy-3-methyl-butyl]-6-morpholino-1-oxo-isoindolin-5-yl]-1-methyl-pyrazole-4-carboxamide] | 51 nM
12 | CO[C@H](C)c1cccc(C(=O)Nc2cc3c(cc2N2CCOCC2)C(=O)N(C[C@@H](F)C(C)(C)O)C3)n1 (racemic) [Example 23, N-[6-morpholino-1-oxo-2-[rac-(2R)-2-fluoro-3-hydroxy-3-methyl-butyl]isoindolin-5-yl]-6-[rac-(1R)-1-methoxyethyl] pyridine-2-carboxamide] | 12 nM
13 | Cn1cccc(C(=O)Nc2cc3c(cc2N2CCOCC2)C(=O)N(C[C@@H](F)C(C)(C)O)C3)c1=O [Example 4, (R)-N-(2-(2-Fluoro-3-hydroxy-3-methylbutyl)-6-morpholino-1-oxoisoindolin-5-yl)-1-methyl-2-oxo-1,2-dihydropyridine-3-carboxamide] | 8 nM
14 | CO[C@@H](C)c1cccc(C(=O)Nc2cc3c(cc2N2CCOCC2)C(=O)N(C[C@@H](F)C(C)(C)O)C3)n1 (racemic) [Example 24, N-[6-morpholino-1-oxo-2-[rac-(2R)-2-fluoro-3-hydroxy-3-methyl-butyl]isoindolin-5-yl]-6-[rac-(1S)-1-methoxyethyl] pyridine-2-carboxamide] | 33 nM
15 | CCn1cccc(C(=O)Nc2cc3c(cc2N2CCOCC2)C(=O)N(C[C@@H](F)C(C)(C)O)C3)c1=O [Example 5, (R)-1-Ethyl-N-(2-(2-fluoro-3-hydroxy-3-methylbutyl)-6-morpholino-1-oxoisoindolin-5-yl)-2-oxo-1,2-dihydropyridine-3-carboxamide] | 5.6 nM
16 | C[C@@H]1COCCN1c1nc(C(=O)Nc2cc3c(cc2N2CCOCC2)C(=O)N(C[C@@H](F)C(C)(C)O)C3)co1 (racemic) [Example 16, N-(2-((R)-2-fluoro-3-hydroxy-3-methylbutyl)-6-morpholino-1-oxoisoindolin-5-yl)-2-((R)-20-methyl-morpholino) oxazole-4-carboxamide] | 7 nM
17 | CC(C)(O)[C@H](F)CN1Cc2cc(NC(=O)c3coc(N4CCOCC4)n3)c(N3CCOCC3)cc2C1=O [Example 15, (R)-N-(2-(2-Fluoro-3-hydroxy-3-methylbutyl)-6-morpholino-1-oxoisoindolin-5-yl)-2-morpholino-oxazole-4-carboxamide] | 4.6 nM
18 | CC(C)(O)[C@H](F)CN1Cc2cc(NC(=O)c3cnc4cccnn34)c(N3CCOCC3)cc2C1=O [Example 1, (R)—N-(2-(2-Fluoro-3-hydroxy-3-methylbutyl)-6-morpholino-1-oxoisoindolin-5-yl)imidazo[1,2-b]pyridazine-3-carboxamide] | 5.1 nM
19 | CC(C)Oc1cccc(C(=O)Nc2cc3c(cc2N(C)C)C(=O)N(C[C@@H](F)C(C)(C)O)C3)n1 [Example 11, N-[6-(Dimethylamino)-2-[(2R)-2-fluoro-3-hydroxy-3-methyl-butyl]-1-oxo-isoindolin-5-yl]-6-isopropoxy-pyridine-2-carboxamide] | 21 nM
20 | Cn1ccn2ncc(C(=O)Nc3cc4c(cc3N3CCOCC3)C(=O)N(C[C@@H](F)C(C)(C)O)C4)c2c1=O [Example 26, N-[2-[(2R)-2-Fluoro-3-hydroxy-3-methyl-butyl]-6-morpholino-1-oxo-isoindolin-5-yl]-5-methyl-4-oxo-pyrazolo [1,5-a] pyrazine-3-carboxamide] | 47 nM
